Test results: US6531475B1, “CRF receptor antagonists and methods relating thereto” (Neurocrine Biosciences, Inc., priority 1998, dated 2003)
Read-outs that look alike come from different tables or passages of the source.

Biological target: T1, human CRF receptors (Homo sapiens, UniProt P34998)
T1 construct: expressed in transfected cells; stably transfected cells, used as membrane suspension
T1 sequence (P34998 24-415): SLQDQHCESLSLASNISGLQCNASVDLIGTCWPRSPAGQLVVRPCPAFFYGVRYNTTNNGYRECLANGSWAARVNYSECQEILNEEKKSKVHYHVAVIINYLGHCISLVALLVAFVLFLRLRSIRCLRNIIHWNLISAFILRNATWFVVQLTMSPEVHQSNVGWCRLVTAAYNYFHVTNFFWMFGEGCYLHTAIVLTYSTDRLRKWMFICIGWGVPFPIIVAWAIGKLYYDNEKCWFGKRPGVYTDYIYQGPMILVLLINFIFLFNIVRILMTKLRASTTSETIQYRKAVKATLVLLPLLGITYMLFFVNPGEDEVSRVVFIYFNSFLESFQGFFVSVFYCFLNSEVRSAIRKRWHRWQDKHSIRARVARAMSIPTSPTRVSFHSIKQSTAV
Assay: CRF receptor radioligand binding assay (displacement of [125I]tyrosine-ovine CRF)
Conditions: cells stably transfected with human CRF receptors, read-out: Ki (CRF receptor binding affinity)
Excerpt: The effectiveness of a compound as a CRF receptor antagonist may be determined by various assay methods. Suitable CRF antagonists of this invention are capable of inhibiting the specific binding of CRF to its receptor and antagonizing activities associated with CRF. A compound of structure (I) may be assessed for activity as a CRF antagonist by one or more generally accepted assays for this purpose, including (but not limited to) the assays disclosed by DeSouza et al. (J. Neuroscience 7:88, 1987) and Battaglia et al. (Synapse 1:572, 1987). […] CRF receptor affinity may be determined by binding studies that measure the ability of a compound to inhibit the binding of a radiolabeled CRF (e.g., [^125I]tyrosine-CFR) to its receptor (e.g., receptors prepared from rat cerebral cortex membranes). The radioligand binding assay described by DeSouza et al. (supra, 1987) provides an assay for determining a compound's affinity for the CRF receptor. Such activity is typically calculated from the IC50 as the concentration of a compound necessary to displace 50% of the radiolabeled ligand from the receptor, and is reported as a “Ki” value calculated by the following equation: [formula]
where L=radioligand and KD=affinity of radioligand for receptor (Cheng and Prusoff, Biochem. Pharmacol. 22:3099, 1973).
With reference to CRF receptor binding affinities, CRF receptor antagonists of this invention have a Ki of less than 10 μM. […] As set forth in greater detail below, the Ki values of representative compounds of this invention were assayed by the methods set forth in Example 9.
The compounds of this invention may be evaluated for binding activity to the CRF receptor by a standard radioligand binding assay as generally described by DeSouza et al. (J. Neurosci. 7:88-100, 1987). By utilizing various radiolabeled CRF ligands, the assay may be used to evaluate the binding activity of the compounds of the present invention with any CRF receptor subtype. Briefly, the binding assay involves the displacement of a radiolabeled CRF ligand from the CRF receptor.
More specifically, the binding assay is performed in 1.5 ml Eppendorf tubes using approximately 1×10^6 cells per tube stably transfected with human CRF receptors. Each tube receives about 0.1 ml of assay buffer (e.g., Dulbecco's phosphate buffered saline, 10 mM magnesium chloride, 20 μM bacitracin) with or without unlabeled sauvagine, urotensin I or CRF (final concentration, 1 μM) to determine nonspecific binding, 0.1 ml of […] tyrosine-ovine CRF (final concentration ˜200 pM or approximately the KD as determined by Scatchard analysis) and 0.1 ml of a membrane suspension of cells containing the CRF receptor. The mixture is incubated for 2 hours at 22° C. followed by the separation of the bound and free radioligand by centrifugation. Following two washes of the pellets, the tubes are cut just above the pellet and monitored in a gamma counter for radioactivity at approximately 80% efficiency. All radioligand binding data may be analyzed using the non-linear least-square curve-fitting program LIGAND of Munson and Rodbard (Anal. Biochem. 107:220, […]).

| Structure (SMILES) | Ki (more preferred compounds) [nM] | Ki (preferred compounds) [nM] |
| --- | --- | --- |
| Cc1cc2c3c(n1)c(-c1ccc(Cl)cc1Cl)nn3CCN2C(C)CCCC(C)C (stereo not drawn) [I-2a-9] | < 250 | < 1000 |
| CC[C@H]1Cn2nc(-c3ccc(C(F)(F)F)cc3OC)c3nc(C)cc(c32)N1Cc1ccc(F)cc1 [I-2a-76] | < 250 |  |
| Cc1cc2c3c(n1)c(-c1ccc(Cl)cc1Cl)nn3CCN2C1CCCCC1C (stereo not drawn) [I-2a-6] | < 250 |  |
| Cc1cc2c3c(n1)c(-c1ccc(Cl)cc1Cl)nn3CCN2C1CCCc2ccccc21 (stereo not drawn) [I-2a-8] | < 250 | < 1000 |

Other lines, results leading:

| Ki (more preferred compounds) [nM] | Ki (preferred compounds) [nM] | Structure (SMILES) |
| --- | --- | --- |
| < 250 | < 1000 | CCCC(CCC)N1CC(C)c2cn(-c3ccc(Cl)cc3Cl)c3nc(C)nc1c23 (stereo not drawn) [I-4b-2] |
|  | < 1000 | COc1cc(C(F)(F)F)ccc1-c1nn2c3c(cc(C)nc13)N(CCC(C)C)[C@@H](C)C2 [i-2a-92] |
| < 250 | < 1000 | C=C1CN(C(CCC)CCC)c2nc(C)nc3c2c1cn3-c1ccc(Cl)cc1Cl [I-4b-1] |
|  | < 1000 | CC[C@H]1Cn2nc(-c3ccc(C(C)C)cc3C(F)(F)F)c3nc(C)cc(c32)N1CC(C)C [I-2a-173] |
